Results on 40 molecules are retold here after patent US7138411B2, “Substituted benzopyran derivatives for the treatment of inflammation” (G.D. Searle & Co., priority 1997, dated 2006).

By melting point is commonly meant the temperature, or range, at which the solid turns liquid. `O=C(O)C1=Cc2cc(Cl)cc(-c3nc4ccccc4[nH]3)c2OC1C(F)(F)F` (stereo not shown) [Example 110, 8-(1H-Benzimidazol-2-yl)-6-chloro-2-(trifluoromethyl)-2H-1-benzopyran-3-carboxylic acid]: the melting point was over 300 °C.

In the case of `CC(C)(C)c1ccc2c(c1)OC(C(F)(F)C(F)(F)F)C(C(=O)O)=C2` (stereo not shown) [Example 111, 7-(1,1-Dimethylethyl)-2-(pentafluoroethyl)-2H-1-benzopyran-3-carboxylic acid], the melting point lay in the range of 171 to 173.5 °C.

`O=C(O)C1=Cc2cc(Cl)cc(COCc3ccccc3)c2OC1C(F)(F)F` (stereo not shown) [Example 113, 6-Chloro-8-(benzyloxymethyl)-2-(trifluoromethyl)-2H-1-benzopyran-3-carboxylic acid] registered a melting point of 133.8 to 135.4 °C.

Molecule `O=C(O)C1=Cc2cc(Cl)cc(-c3ccco3)c2OC1C(F)(F)F` (stereo not shown) [Example 117, 6-Chloro-8-(2-furanyl)-2-(trifluoromethyl)-2H-1-benzopyran-3-carboxylic acid] had a melting point of 171.5 to 173.3 °C.

Take `O=C(O)C1=Cc2cc(Cl)cc(C#CCCCCl)c2OC1C(F)(F)F` (stereo not shown) [Example 118, 6-Chloro-8-(5-chloro-1-pentynyl)-2-(trifluoromethyl)-2H-1-benzopyran-3-carboxylic acid]: the melting point is 154.4 to 156.4 °C.

In turn, `CCCC#Cc1cc(Cl)cc2c1OC(C(F)(F)F)C(C(=O)O)=C2` (stereo not shown) [Example 119, 6-Chloro-8-(1-pentynyl)-2-(trifluoromethyl)-2H-1-benzopyran-3-carboxylic acid] registered a melting point of 168.1 to 171.2 °C.

`CC(C)(C)C#Cc1cc(Cl)cc2c1OC(C(F)(F)F)C(C(=O)O)=C2` (stereo not shown) [Example 121, 6-Chloro-8-(3,3-dimethyl-1-butynyl)-2-(trifluoromethyl)-2H-1-benzopyran-3-carboxylic acid] came in with a melting point of 218.3 to 222.4 °C.

The molecule `O=C(O)C1=Cc2cc(Cl)cc(C#Cc3ccc(Cl)cc3)c2OC1C(F)(F)F` (stereo not shown) [Example 122, 6-Chloro-8-[(4-chlorophenyl)ethynyl]-2-(trifluoromethyl)-2H-1-benzopyran-3-carboxylic acid] came in with a melting point of 210.4 to 211.4 °C.

`COc1ccc(C#Cc2cc(Cl)cc3c2OC(C(F)(F)F)C(C(=O)O)=C3)cc1` (stereo not shown) [Example 123, 6-Chloro-8-[(4-methoxyphenyl)ethynyl]-2-(trifluoromethyl)-2H-1-benzopyran-3-carboxylic acid] returned a melting point of 217.7 to 218.7 °C.

`O=C(O)C1=Cc2cc(C#Cc3ccccc3)ccc2OC1C(F)(F)F` (stereo not shown) [Example 124, 6-(Phenylethynyl)-2-(trifluoromethyl)-2H-1-benzopyran-3-carboxylic acid] registered a melting point of 240.1 to 241.3 °C.

For `COc1cccc(-c2cc(Cl)cc3c2OC(C(F)(F)F)C(C(=O)O)=C3)c1` (stereo not shown) [Example 126, 6-Chloro-8-(3-methoxyphenyl)-2-(trifluoromethyl)-2H-1-benzopyran-3-carboxylic acid], the melting point is 173.1 to 177.4 °C.

In the case of `CSc1ccc(-c2cc(Cl)cc3c2OC(C(F)(F)F)C(C(=O)O)=C3)cc1` (stereo not shown) [Example 127, 6-Chloro-8-[(4-methylthio)phenyl]-2-(trifluoramethyl)-2H-1-benzopyran-3-carboxylic acid], the melting point fell in the range of 211.4 to 212.5 °C.

Consider `CS(=O)(=O)c1ccc(-c2cc(Cl)cc3c2OC(C(F)(F)F)C(C(=O)O)=C3)cc1` (stereo not shown) [Example 128, 6-Chloro-8-[(4-methylsulfonyl)phenyl]-2-(trifluoromethyl)-2H-1-benzopyran-3-carboxylic acid], for which the melting point lay within 286.5 to 287.8 °C.

`O=C(O)C1=Cc2cc(Br)cc(F)c2OC1C(F)(F)F` (stereo not shown) [Example 130, 6-Bromo-8-fluoro-2-(trifluoromethyl)-2H-1-benzopyran-3-carboxylic acid] came in with a melting point of 206 to 208 °C.

Molecule `O=C(O)C1=Cc2cc(-c3ccc(F)cc3)ccc2OC1C(F)(F)F` (stereo not shown) [Example 131, 6-(4-Fluorophenyl)-2-(trifluoromethyl)-2H-1-benzopyran-3-carboxylic acid] came in with a melting point of 207 to 210 °C.

The molecule `O=C(O)C1=Cc2cc(-c3ccccc3)ccc2OC1C(F)(F)F` (stereo not shown) [Example 132, 6-Phenyl-2-(trifluoromethyl)-2H-1-benzopyran-3-carboxylic acid] yielded a melting point of 197 to 198 °C.

Take `O=C(O)C1=Cc2cc(F)cc(Cl)c2OC1C(F)(F)F` (stereo not shown) [Example 133, 8-Chloro-6-fluoro-2-(trifluoromethyl)-2H-1-benzopyran-3-carboxylic acid]: the melting point fell in the range of 240 to 241 °C.

Take `O=C(O)C1=Cc2cc(I)cc(I)c2OC1C(F)(F)F` (stereo not shown) [Example 134, 6,8-Diiodo-2-(trifluoromethyl)-2H-1-benzopyran-3-carboxylic acid]: the melting point lay in the range of 243 to 244 °C.

`O=C(O)C1=Cc2cc(-c3ccc(Cl)s3)ccc2OC1C(F)(F)F` (stereo not shown) [Example 135, 6-(5-Chloro-2-thienyl)-2-(trifluoramethyl)-2H-1-benzopyran-3-carboxylic acid] registered a melting point of 205 to 206 °C.

Turning to `O=C(O)C1=Cc2cc(-c3cccs3)ccc2OC1C(F)(F)F` (stereo not shown) [Example 136, 6-(2-thienyl)-2-(trifluoromethyl)-2H-1-benzopyran-3-carboxylic acid], the melting point was in the range of 209 to 212 °C.

Molecule `O=C(O)C1=Cc2cc(-c3ccc(Cl)cc3)ccc2OC1C(F)(F)F` (stereo not shown) [Example 137, 6-(4-Chlorophenyl)-2-(trifluoromethyl)-2H-1-benzopyran-3-carboxylic acid] had a melting point of 212 to 213 °C.

Take `COc1ccc(-c2cc(Cl)cc3c2OC(C(F)(F)F)C(C(=O)O)=C3)cc1` (stereo not shown) [Example 141, 6-Chloro-8-(4-methoxyphenyl)-2-trifluoromethyl-2H-1-benzopyran-3-carboxylic acid]: the melting point was in the range of 194 to 196 °C.

For the molecule `C=CC1=C(C(=O)O)C(C(F)(F)F)Oc2ccc(Cl)cc21` (stereo not shown) [Example 142, 6-Chloro-2-(trifluoromethyl)-4-ethenyl-2H-1-benzopyran-3-carboxylic acid], the melting point lay within 143 to 145 °C.

In the case of `O=C(O)C1=C(c2ccccc2)c2cc(Cl)ccc2OC1C(F)(F)F` (stereo not shown) [Example 143, 6-Chloro-2-(trifluoromethyl)-4-phenyl-2H-1-benzopyran-3-carboxylic acid], the melting point lay within 225.5 to 226.6 °C.

On to `O=C(O)C1=C(c2cccs2)c2cc(Cl)ccc2OC1C(F)(F)F` (stereo not shown) [Example 144, 6-Chloro-4-(2-thienyl)-2-(trifluoromethyl)-2H-1-benzopyran-3-carboxylic acid], for which the melting point is 200.8 to 206.7 °C.

The molecule `Cc1ccc2c(c1)C=C(C(=O)O)C(C(F)(F)F)S2` (stereo not shown) [Example 145, 6-Methyl-2-(trifluoromethyl)-2H-1-benzothiopyran-3-carboxylic acid] returned a melting point of 180.8 to 184.2 °C.

Turning to `Cc1cc(C)c2c(c1)C=C(C(=O)O)C(C(F)(F)F)S2` (stereo not shown) [Example 146, 6,8-Dimethyl-2-(trifluoromethyl)-2H-1-benzothiopyran-3-carboxylic acid], the melting point is 220 to 225 °C (dec.).

In turn, `CC(C)(C)c1ccc2c(c1)C=C(C(=O)O)C(C(F)(F)F)S2` (stereo not shown) [Example 147, 6-(1,1-Dimethylethyl)-2-(trifluoromethyl)-2H-1-benzothiopyran-3-carboxylic acid] showed a melting point of 183.8 to 184.6 °C.

`Cc1ccc2c(c1)SC(C(F)(F)F)C(C(=O)O)=C2` (stereo not shown) [Example 148, 7-Methyl-2-(trifluoromethyl)-2H-1-benzothiopyran-3-carboxylic acid] came in with a melting point of 186.6 to 191.9 °C.

For `Cc1cc2c(cc1C)SC(C(F)(F)F)C(C(=O)O)=C2` (stereo not shown) [Example 149, 6,7-Dimethyl-2-(trifluoromethyl)-2H-1-benzothiopyran-3-carboxylic acid], the melting point fell in the range of 235 to 237 °C.

`Cc1cccc2c1SC(C(F)(F)F)C(C(=O)O)=C2` (stereo not shown) [Example 150, 8-Methyl-2-(trifluoromethyl)-2H-1-benzothiopyran-3-carboxylic acid]: the melting point was 224 to 225 °C.

The molecule `O=C(O)C1=Cc2ccccc2SC1C(F)(F)F` (stereo not shown) [Example 151, 2-(Trifluoromethyl)-2H-1-benzothiopyran-3-carboxylic acid] gave a melting point of 187 to 190 °C.

Consider `O=C(O)C1=Cc2ccc(Cl)cc2SC1C(F)(F)F` (stereo not shown) [Example 153, 7-Chloro-2-(trifluoromethyl)-2H-1-benzothiopyran-3-carboxylic acid], for which the melting point lay in the range of 225.7 to 227.3 °C.

`O=C(O)C1=Cc2cc(F)c(F)cc2NC1C(F)(F)F` (stereo not shown) [Example 159, 6,7-Difluoro-1,2-dihydro-2-(trifluoromethyl)-3-quinolinecarboxylic acid] came in with a melting point of 186.6 to 188.9 °C.

`O=C(O)C1=Cc2cc(OC(F)(F)F)ccc2NC1C(F)(F)F` (stereo not shown) [Example 162, 1,2-Dihydro-6-(trifluoromethoxy)-2-(trifluoromethyl)-3-quinolinecarboxylic acid] returned a melting point of 127.7 to 128.9 °C.

`O=C(O)C1=Cc2cc(C(F)(F)F)ccc2NC1C(F)(F)F` (stereo not shown) [Example 163, 6-(Trifluoromethyl)-1,2-dihydro-2-(trifluoromethyl)-3-quinolinecarboxylic acid] displayed a melting point of 150 to 156 °C.

In the case of `N#Cc1ccc2c(c1)C=C(C(=O)O)C(C(F)(F)F)N2` (stereo not shown) [Example 164, 6-Cyano-1,2-dihydro-2-(trifluoromethyl)-3-quinolinecarboxylic acid], the melting point fell in the range of 238 to 240 °C.

Take `O=C(O)C1=Cc2cc(Cl)ccc2N(Cc2ccc(C(F)(F)F)cc2)C1C(F)(F)F` (stereo not shown) [Example 166, 6-Chloro-1,2-dihydro-2-(trifluoromethyl)-1-[[4-(trifluoromethyl)phenyl]methyl]-3-quinolinecarboxylic acid]: the melting point fell in the range of 229 to 231 °C.

With `O=C(O)C1=Cc2cc(Cl)ccc2N(Cc2ccc(Cl)cc2)C1C(F)(F)F` (stereo not shown) [Example 167, 6-Chloro-1-[(4-Chlorophenyl)methyl]-1,2-dihydro-2-(trifluoromethyl)-3-quinolinecarboxylic acid], the melting point was in the range of 250 to 253 °C.

As for `COc1ccc(CN2c3ccc(Cl)cc3C=C(C(=O)O)C2C(F)(F)F)cc1` (stereo not shown) [Example 168, 6-Chloro-1,2-dihydro-2-(trifluoromethyl)-1-[[4-(methoxy)phenyl]methyl]-3-quinolinecarboxylic acid], the melting point fell in the range of 196 to 197 °C.
